# From PMC5889558, “The inhibition of human lung fibroblast proliferation and differentiation by Gs-coupled receptors is not predicted by the magnitude of cAMP response” (Respiratory Research, 2018)
# Legend:
# [1] = test system: human lung fibroblasts (HLF); test: HLF proliferation by BrdU incorporation (DELFIA), driven by FBS or PDGF; type: cell-based; settings: 24 h; for Emax / EC50: Homo sapiens, Fibroblast; for Emax / EC50 / Proliferation vs PDGF Emax (% max) / Proliferation vs PDGF pEC50 / Proliferation vs serum pEC50 / Proliferation vs serum Emax (% max): inhibition of BrdU incorporation, NC = not calculated due to incomplete curve; for EC50 / Proliferation vs PDGF pEC50 / Proliferation vs serum pEC50: mean ± SEM; for maximal level of inhibition of PDGF-driven proliferation: near maximal PDGF
# Experimental: (§1) Proliferation of HLF was measured by incorporation of bromodeoxyuridine (BrdU). HLF were seeded overnight at 4000 cells/well in 96-well black ViewPlates, before being starved for 24 h in culture medium devoid of FBS. Proliferation was measured after incubation with a range of concentrations of FBS or PDGF, in DMEM supplemented with 0.1% w/v HSA, for 24 h.
# For anti-remodelling assays using BrdU incorporation, cells were incubated for 24 h with a range of concentrations of test compounds in the presence of near maximal concentrations of FBS or PDGF in DMEM supplemented with 0.1% w/v HSA. Proliferation was assessed using the DELFIA BrdU incorporation assay kit following manufacturer protocol. Fluorescence was measured using a Packard EnVision plate reader. To account for the inter-assay variation in levels of proliferation in each experiment, data were normalized to the PDGF or FBS response.
# [2] = test system: human lung fibroblasts (HLF); test: Fibroblast to myofibroblast transdifferentiation (FMT), αSMA immunofluorescence, TGFβ-driven; type: cell-based; settings: 48 h, TGFβ 0.3 ng/mL
# Experimental: To assess the differentiation of fibroblasts to the myofibroblast phenotype, immunofluorescence was used to monitor increases in α smooth muscle actin (αSMA). HLF were seeded overnight at 1000 cells/well in 384-well black clear bottom plates, before being starved for 24 h growth medium devoid of FBS.
# For anti-remodelling assays using FMT, cells were incubated for 48 h with a range of concentrations of test compounds and incubated for 48 h, at 37°C, 5% CO2 in the presence of a near maximal concentration of TGFβ (0.3 ng/mL), to promote differentiation in DMEM supplemented with 0.1% w/v HSA. Following stimulation, cells were fixed in 4% paraformaldehyde, washed 3× in PBS (with Ca^2+/Mg^2+), and incubated with permeabilising blocking buffer (dPBS (with Ca^2+/Mg^2+), 10% FBS (v/v), 0.1% Triton X-100 (v/v)) for 1 h at 37°C. Wells were then washed 3× in wash buffer (Tris Buffered Saline (TBS), 0.05% (v/v) Tween-20) and incubated with mouse anti-α SMA (1:1000 dilution in permeabilising blocking buffer) for 1 h at room temperature, with gentle shaking. Following 3× wash in wash buffer, wells were incubated with blocking buffer containing Hoechst to stain for nuclear DNA (2 μM), and FITC-conjugated Affini-pure goat […] IgG (1:1000 dilution in blocking buffer) for 30 min at 37°C. Fluorescence was then quantified on a widefield ImageXpress Micro microscope, with a Plan Fluor 20X objective, DAPI filter cube (excitation 400–418 nm, emission 435–470 nm), 50 ms exposure time for nuclei, and FITC filter cube (excitation 467–498 nm, emission 513–556 nm), 200 ms exposure time for αSMA.
# To quantify increases in αSMA fluorescence, a standard Multi-Wavelength Cell Scoring algorithm was used in MetaXpress 5.3 software (Molecular Devices, California, USA). To account for the inter-assay variation in levels of αSMA expression produced in each experiment, data were normalized to the response to TGFβ.
# [3] = test system: human lung fibroblasts (HLF); test: PDGF-mediated ERK phosphorylation (pERK imaging); type: cell-based; settings: 30 min pre-incubation, 3 ng/mL PDGF for 10 min
# Experimental: HLF were seeded overnight at 6000 cells/well in 96-well black clear bottom plates then starved for 24 h in the growth medium devoid of all additives. […] Fluorescence was then quantified on the InCell2000, using DAPI settings to visualize nuclei (0.1 s exp) and FITC settings for pERK (2 s exp). To quantify levels of pERK fluorescence, a standard Multi-Target Analysis algorithm was used in the INCell Analyzer Workstation (v3.7.1). To account for the inter-assay variation in levels of ERK phosphorylation produced in each experiment, data were normalized to the EC80 PDGF response.
# [4] = test system: human lung fibroblasts (HLF); test: Cell viability assay, caspase-3/7 as marker of apoptosis; type: cell-based; settings: 24 h
# Experimental: Cell viability was measured using caspase-3/7 expression as a marker of apoptosis after treatment for 24 h with test compounds. HLF were seeded overnight at 6,000 cells/well in 96-well black ViewPlates, before being starved for 24 hours in culture medium devoid of FBS. Cells were incubated for 24 hours in the presence of test compounds at the top concentrations used in the proliferation assays, or in the presence of 100 nM staurosporine to induce apoptosis.
# The presence of the apoptotic marker caspase-3/7 was detected by incubating cells with 8 μM CellEvent™ Caspase-3/7 Red Detection Reagent in dPBS with 5 % FBS, for 30 minutes at 37°C. […] Images were analyzed using a multi wavelength cell scoring algorithm within the MetaXpress 5.3 software, which measures cell number using stained nuclei, and percent of these cells positive for caspase-3/7 from Cy5 readouts. To account for the inter-assay variation in levels of caspase 3/7 detected in each experiment, data were normalized to the staurosporine response.
# Statistical significance across treatment groups was determined by using the one-way ANOVA with Dunnett’s multiple-comparison post hoc test.
# [5] = Agonist concentration remaining after incubation with HLF; type: in vitro ADME, human; settings: after 24 h incubation with HLF; unpublished data
# [6] = test system: human lung fibroblasts (HLF); test: cAMP accumulation in HLF (HitHunter or AlphaScreen); type: cell-based; settings: HLF, 2 h, mean ± SEM, NC = not calculated due to incomplete curve; for EC50 / Emax: Homo sapiens, Fibroblast; for EC50 / cAMP pEC50: room temperature, 5 μM rolipram (excluded for PDE inhibitors), at least 3 experiments; for EC50: read-out: cAMP pEC50 (converted); for Emax / cAMP Emax (% max): percentage of the maximal forskolin response; for Emax: read-out: cAMP Emax (% max)
# Experimental: HLF were grown to confluency in 96-well white ViewPlates, before incubation with a range of agonist concentrations, or vehicle, for 2 h at room temperature in HBSS with 5 mM HEPES, 0.1% w/v HSA, and 5 μM rolipram. […] Rolipram was excluded when measuring cAMP levels in response to PDE inhibitors. cAMP levels were measured using either HitHunter cAMP assay or AlphaScreen competition assay following manufacturer protocol, and were assessed on either a BMG LABTEK ClarioStar or a Packard EnVision plate reader. cAMP concentrations in each well were determined using a standard curve. To account for the inter-assay variation in levels of cAMP produced in each experiment, data were normalized to the maximal forskolin response.
# [7] = test system: human lung fibroblasts (HLF); test: HLF proliferation by nuclei count; type: cell-based
# Experimental: as §1, with “nuclei count. Human lung fibroblasts (HLF)” for “incorporation of bromodeoxyuridine (BrdU). HLF”, “4,000” for “4000”, “0.1 %” for “0.1%”, “24, 48, 72, or 96 h for nuclei count assay.” for “24 h.”
# For anti-remodelling assays, cells were incubated for 48 h with a range of concentrations of test compounds in the presence of an EC80 concentration of FBS (1.8 % v/v). Following stimulation, cells were fixed with 4 % PFA and nuclei stained with Hoechst 33342 (1 μM) for 15 minutes at room temperature. Cells were then washed three times with dPBS before the plate was read using the widefield ImageXpress Micro microscope, with a Plan Fluor 4X objective, DAPI filter cube (excitation 400-418nm, emission 435-470nm), and 50 ms exposure time. Images were analysed using a nuclear count algorithm within the MetaXpress 5.3 software (Molecular Devices, California, USA). To account for the inter-assay variation in levels of proliferation in each experiment, data were normalized to the EC80 FBS response.
# [8] = test system: human lung fibroblasts (HLF); test: Fibroblast to myofibroblast transdifferentiation (FMT), αSMA immunofluorescence, TGFβ-driven; type: cell-based; settings: data not shown
# [9] = EC80 PDGF, percentage of maximal proliferation observed with PDGF, read-out: Proliferation vs PDGF Emax (% max)
# [10] = EC80 concentration of PDGF, read-out: Proliferation vs PDGF pEC50 (converted)
# [11] = EC80 concentration of serum, read-out: Proliferation vs serum pEC50 (converted)
# [12] = EC80 serum, percentage of maximal proliferation observed with serum, read-out: Proliferation vs serum Emax (% max)
# [13] = EC80 PDGF, percentage of maximal proliferation observed with PDGF
# [14] = EC80 serum, percentage of maximal proliferation observed with serum
# [15] = HLF, 1:10 dilution of top conc 30 μM
# [16] = HLF, 1:10 dilution of top conc 10 μM
# [17] = HLF, top conc 10 μM, mean ± SEM, n=3
molecule,measurement,setting,value
C=C[C@@]1(C)CC(=O)[C@]2(O)[C@@]3(C)[C@@H](O)CCC(C)(C)[C@@H]3[C@H](O)[C@H](OC(C)=O)[C@@]2(C)O1 [Forskolin],Emax,[1]; [9],90.8 ± 9.12%
same,EC50,[1]; [10],1050 nM
same,EC50,[1]; [11],5250 nM
same,Emax,[1]; [12],74 ± 6.7%
same,inhibition of TGFβ-driven FMT (in words),[2],completely inhibit FMT
same,inhibition of PDGF-mediated ERK phosphorylation (in words),[3],inhibited PDGF-mediated ERK phosphorylation
same,"% cells positive for caspase-3/7, 1:10 dilution","[4]; human, 3 μM",0.61 ± 0.15%
same,"% cells positive for caspase-3/7, Top conc","[4]; human, 30 μM",1.26 ± 0.35%
CCCCC[C@H](O)CC[C@@H]1[C@H]2Cc3cccc(OCC(=O)O)c3C[C@H]2C[C@H]1O [Treprostinil],Emax,[1]; [9],63.7 ± 6.39%
same,EC50,[1]; [10],29.5 nM
same,EC50,[1]; [11],102 nM
same,Emax,[1]; [12],42.5 ± 5.36%
same,original concentration of agonist remaining,[5],> 90%
same,EC50,[6],151 nM
same,Emax,[6],101 ± 0.58%
same,"% cells positive for caspase-3/7, 1:10 dilution","[4]; human, 1 μM",0.92 ± 0.25%
same,"% cells positive for caspase-3/7, Top conc","[4]; human, 10 μM",0.76 ± 0.06%
N#Cc1c(N)nc(SCC(N)=O)c(C#N)c1-c1ccc(OCC2CC2)cc1 [BAY60–6583],inhibition of FBS- and PDGF-driven proliferation (in words),"[1]; BrdU, either stimulus",fully inhibit both FBS- and PDGF-driven proliferation
same,maximal level of inhibition of serum-driven proliferation,"[1]; BrdU, near maximal FBS",100%
same,maximal level of inhibition of PDGF-driven proliferation,[1]; BrdU,100%
same,Proliferation vs PDGF Emax (% max),[1]; [13],100 ± 0.01 % max
same,Proliferation vs PDGF pEC50,[1]; EC80 concentration of PDGF,5.30 ± 0.12
same,Proliferation vs serum pEC50,[1]; EC80 concentration of serum,5.30 ± 0.16
same,Proliferation vs serum Emax (% max),[1]; [14],100 ± 0.01 % max
same,inhibition of TGFβ-driven FMT (in words),[2],completely inhibit FMT
same,cAMP pEC50,[6],6.57 ± 0.06
same,cAMP Emax (% max),[6],10.2 ± 2.89 % max
same,"% cells positive for caspase-3/7, 1:10 dilution",[4]; [15],1.04 ± 0.38%
same,"% cells positive for caspase-3/7, Top conc","[4]; HLF, top conc 30 μM",0.62 ± 0.14%
CCNC(=O)[C@H]1O[C@@H](n2cnc3c(N)ncnc32)[C@H](O)[C@@H]1O [NECA],maximal level of inhibition of PDGF-driven proliferation,[1]; BrdU,38%
same,Proliferation vs PDGF Emax (% max),[1]; [13],37.8 ± 14.7 % max
same,Proliferation vs PDGF pEC50,[1]; EC80 concentration of PDGF,6.94 ± 0.43
same,inhibition of TGFβ-driven FMT (in words),[2],full concentration-response curves could not be established
same,cAMP pEC50,[6],5.39 ± 0.13
same,cAMP Emax (% max),[6],47.3 ± 3.40 % max
same,"% cells positive for caspase-3/7, 1:10 dilution",[4]; [15],0.67 ± 0.09%
same,"% cells positive for caspase-3/7, Top conc","[4]; HLF, top conc 30 μM",1.04 ± 0.20%
Platelet-derived growth factor [PDGF],maximal proliferation (BrdU incorporation),[1]; normalized to maximal proliferation observed with 10% serum,41.0 ± 8.62%
same,EC50 for stimulation of proliferation (nuclei count),[7]; 72 h treatment,3.77 ± 0.13 ng/mL
same,EC50 for stimulation of proliferation (nuclei count),[7]; 96 h treatment,7.26 ± 3.23 ng/mL
same,maximal proliferation (nuclei count),[7]; 96 h treatment,29.2 ± 15.2 % of the maximal serum response
NCCc1ccc(O)c(O)c1 [Dopamine],Emax,[1]; [9],73.5 ± 13.5%
same,EC50,[1]; [10],16600 nM
same,inhibition of TGFβ-driven FMT (in words),[2],full concentration-response curves could not be established
same,EC50,[6],4070 nM
same,Emax,[6],41.2 ± 10%
same,"% cells positive for caspase-3/7, 1:10 dilution","[4]; human, 3 μM",1.21 ± 0.34%
same,"% cells positive for caspase-3/7, Top conc","[4]; human, 30 μM",0.83 ± 0.14%
AGN-205204,Proliferation vs PDGF Emax (% max),[1]; [13],101 ± 3.71 % max
same,Proliferation vs PDGF pEC50,[1]; EC80 concentration of PDGF,7.45 ± 0.25
same,Proliferation vs serum pEC50,[1]; EC80 concentration of serum,6.91 ± 0.48
same,Proliferation vs serum Emax (% max),[1]; [14],51.3 ± 8.89 % max
same,maximal level of inhibition of FMT,[2],71 % of the TGFβ response
same,cAMP pEC50,[6],6.62 ± 0.12
same,cAMP Emax (% max),[6],49.7 ± 3.84 % max
same,"% cells positive for caspase-3/7, 1:10 dilution",[4]; [16],0.56 ± 0.09%
same,"% cells positive for caspase-3/7, Top conc",[4]; [17],0.57 ± 0.09%
Transforming growth factor β [TGFβ],EC50 for promoting FMT,[8],0.07 ± 0.01 ng/mL
CC(C)N(CCCCOCC(=O)O)c1cnc(-c2ccccc2)c(-c2ccccc2)n1 [MRE-269],Emax,[1]; [9],85.7 ± 7.65%
same,EC50,[1]; [10],316 nM
same,inhibition of TGFβ-driven FMT (in words),[2],completely inhibit FMT
same,original concentration of agonist remaining,[5],> 90%
same,EC50,[6],178 nM
same,Emax,[6],52.9 ± 4.36%
same,"% cells positive for caspase-3/7, 1:10 dilution",[4]; [16],0.49 ± 0.22%
same,"% cells positive for caspase-3/7, Top conc",[4]; [17],0.49 ± 0.21%
